In US9765022B2, “Disulfide compounds for delivery of pharmaceutical agents” (Tufts University, priority 2013, dated 2017) one finds tumor size data, which are given here for 1 substance.

The assay relates to 4T1-12B breast tumors. Description: In vivo cancer treatment, tumor growth inhibition. Further details: species or system BALB/c mice. Particulars: tail-vein injection every three days, 5.5 mg/kg lipid and 330 μg/kg saporin. The method, then: Composition 31 (i.e., containing 1-O16B and saporin) and Composition 32 (i.e., containing 1-O18B and saporin) were tested for in vivo inhibiting tumor growth following the procedure described below. More specifically, BALB/c mice bearing 4T1-12B breast tumors were developed from a 4T1-12B cell suspension in DMEM supplemented with 10% FBS at a concentration of 10^7 cells/mL. An aliquot (100 μL) of the cell suspension was injected into the mammary fat pad of 4-6 week-old female BALB/c mice. The mice were sorted into four groups randomly (n=7 for treatment group, n=5 for control groups) seven days after the injection. The mice were injected through tail-vein every three days. For the treatment group, each mouse was injected with 5.5 mg/kg of 1-O16B or 1-O18B and 330 μg/kg of saporin. Tumor volumes were measured every three days.
PBS without 1-O16B, 1-O18B, and saporin was also injected as a control. Comparative studies were also conducted using saporin in PBS without 1-O16B and 1-O18B.

In the case of saporin, the tumor size entry was “more than 120 mm^3” (Day 16) and “more than 250 mm^3” (Day 22).
